Reference: patent publication US11752193B2, “Administering methylation-controlled J protein (MCJ) SIRNA to a kidney cell” (University of Vermont and State Agricultural College, priority 2012, dated 2023)

System: MCF7/siMCJ cells
Experiment: Intracellular ATP levels in MCF7/siMCJ cells after incubation with rotenone
Format: cell-based, human
Settings: rotenone 10 μM, 4 h, versus medium (FIG. 3B)
Experimental: CD8 T cells and CD4 T cells were purified from spleen and lymph nodes by negative selection as previously described (Auphan et al., 1998 J Immunol 160, 4810-4821; Conze et al., 2002 J Exp Med 195, 811-823), and by positive selection using the MACS system as recommended by the manufacturer (Miltenyi Biotec, Cambridge, Mass.). Purified T cells were stimulated with plate-bound anti-CD3 (2C11) (5 μg/ml) and soluble anti-CD28 (1 μg/ml) (BD Biosciences, Sparks, Md.) mAbs. Proliferation assays were performed using purified CD8 T cells (10^5 cells/well) activated with anti-CD3 and anti-CD28 and labeled with [^3H]-thymidine as previously described (Conze et al., 2002 J Exp Med 195, 811-823). MCF7, MCF7/siMCJ, and 293T cell lines were maintained as previously described (Hatle et al., 2007 Mol Cell Biol 27, 2952-2966). Rotenone (used at 10 μM) was purchased from Sigma Aldrich (St. Louis, Mo.). Transfection of 293T cells by calcium phosphate was performed as previously described (Hatle et al., 2007 Mol Cell Biol 27, 2952-2966).
The levels of intracellular ATP were determined using […] cells (CD8 T cells, MCF7 cells, 293T cells) per sample and the ATPlite® Luminescence ATP Detection Assay System (PerkinElmer®, Waltham, Mass.) following the recommendations from the manufacturer and a TD-20/20 luminometer (Turner Biosystems, Promega®, Madison, Wis.). […]

SMILES: C=C(C)[C@H]1Cc2c(ccc3c2O[C@@H]2COc4cc(OC)c(OC)cc4[C@@H]2C3=O)O1 [rotenone, Rotenone]
- levels of ATP: abrogated the levels of ATP
